{
  "source": "paper PMC9837035",
  "about": "(Nature Communications, 2023)",
  "key": {"MLL2 [1]": {"biological_target": "MLL2", "sequence (O14686 5319-5537)": "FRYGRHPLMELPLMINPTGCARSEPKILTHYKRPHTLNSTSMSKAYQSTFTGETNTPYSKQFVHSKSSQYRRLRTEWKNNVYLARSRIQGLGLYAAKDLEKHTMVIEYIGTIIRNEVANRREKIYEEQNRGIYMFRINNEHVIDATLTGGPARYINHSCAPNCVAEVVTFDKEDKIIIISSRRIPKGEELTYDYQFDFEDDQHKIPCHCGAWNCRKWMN", "sequence (Q9C005 whole entry, further chain)": "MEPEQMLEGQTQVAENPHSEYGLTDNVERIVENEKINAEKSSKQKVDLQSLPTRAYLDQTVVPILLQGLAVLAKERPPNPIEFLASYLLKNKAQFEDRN", "sequence (Q15291 whole entry, further chain)": "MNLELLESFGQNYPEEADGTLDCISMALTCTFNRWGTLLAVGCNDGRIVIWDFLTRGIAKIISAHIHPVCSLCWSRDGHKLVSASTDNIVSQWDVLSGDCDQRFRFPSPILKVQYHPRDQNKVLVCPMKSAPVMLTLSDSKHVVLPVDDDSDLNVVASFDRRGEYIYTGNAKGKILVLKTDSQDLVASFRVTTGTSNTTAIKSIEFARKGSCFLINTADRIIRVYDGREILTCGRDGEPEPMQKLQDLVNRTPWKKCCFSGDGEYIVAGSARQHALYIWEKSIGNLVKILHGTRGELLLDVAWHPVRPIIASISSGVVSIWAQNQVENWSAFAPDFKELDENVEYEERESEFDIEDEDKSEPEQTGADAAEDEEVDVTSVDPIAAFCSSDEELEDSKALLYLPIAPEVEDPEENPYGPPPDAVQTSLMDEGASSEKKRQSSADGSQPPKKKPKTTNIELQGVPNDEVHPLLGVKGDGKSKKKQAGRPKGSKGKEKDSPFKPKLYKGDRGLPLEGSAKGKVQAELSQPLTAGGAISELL", "sequence (Q9UBL3 whole entry, further chain)": "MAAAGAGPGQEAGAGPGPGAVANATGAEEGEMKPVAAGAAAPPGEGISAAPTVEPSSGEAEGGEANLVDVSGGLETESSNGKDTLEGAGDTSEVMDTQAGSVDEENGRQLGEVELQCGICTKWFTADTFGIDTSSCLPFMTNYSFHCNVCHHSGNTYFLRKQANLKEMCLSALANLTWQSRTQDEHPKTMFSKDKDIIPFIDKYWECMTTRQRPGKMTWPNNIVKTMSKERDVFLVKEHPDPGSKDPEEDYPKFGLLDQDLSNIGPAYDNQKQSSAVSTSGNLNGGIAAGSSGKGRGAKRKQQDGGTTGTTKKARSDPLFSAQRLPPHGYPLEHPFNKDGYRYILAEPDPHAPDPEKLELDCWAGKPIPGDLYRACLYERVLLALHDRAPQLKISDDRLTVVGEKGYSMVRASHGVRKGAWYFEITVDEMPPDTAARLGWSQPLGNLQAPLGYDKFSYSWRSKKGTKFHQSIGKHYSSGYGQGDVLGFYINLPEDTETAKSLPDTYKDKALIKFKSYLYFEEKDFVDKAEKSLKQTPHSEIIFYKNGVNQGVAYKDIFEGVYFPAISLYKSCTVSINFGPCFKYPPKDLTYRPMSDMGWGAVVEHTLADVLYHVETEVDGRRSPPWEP", "assay": "Radioisotope-based methyltransferase assay (selectivity)", "conditions": "MLL2, 1 μM SAM"}, "EZH2 (Y641F)": {"biological_target": "EZH2 (Y641F) (Homo sapiens, UniProt Q15910, Y641F)", "assay": "Radioisotope-based methyltransferase assay (selectivity)"}, "[2]": {"assay": "Liver microsomal stability assay, monkey", "type": "in vitro ADME", "conditions": "for Metabolic stability, % remaining of RK-701: Monkey", "method": "[Human/Rat] Liver microsome analyses (human, rat) were performed in triplicate by the Sumika Chemical Analysis Service (SCAS) according to the standard protocols. […] [Dog/Monkey] Liver microsome analyses (dog, monkey) were performed in duplicate by RIKEN according to the same protocols as SCAS."}, "PRMT5/MEP50": {"biological_target": "PRMT5/MEP50 (Homo sapiens, UniProt O14744)", "sequence (O14744 whole entry)": "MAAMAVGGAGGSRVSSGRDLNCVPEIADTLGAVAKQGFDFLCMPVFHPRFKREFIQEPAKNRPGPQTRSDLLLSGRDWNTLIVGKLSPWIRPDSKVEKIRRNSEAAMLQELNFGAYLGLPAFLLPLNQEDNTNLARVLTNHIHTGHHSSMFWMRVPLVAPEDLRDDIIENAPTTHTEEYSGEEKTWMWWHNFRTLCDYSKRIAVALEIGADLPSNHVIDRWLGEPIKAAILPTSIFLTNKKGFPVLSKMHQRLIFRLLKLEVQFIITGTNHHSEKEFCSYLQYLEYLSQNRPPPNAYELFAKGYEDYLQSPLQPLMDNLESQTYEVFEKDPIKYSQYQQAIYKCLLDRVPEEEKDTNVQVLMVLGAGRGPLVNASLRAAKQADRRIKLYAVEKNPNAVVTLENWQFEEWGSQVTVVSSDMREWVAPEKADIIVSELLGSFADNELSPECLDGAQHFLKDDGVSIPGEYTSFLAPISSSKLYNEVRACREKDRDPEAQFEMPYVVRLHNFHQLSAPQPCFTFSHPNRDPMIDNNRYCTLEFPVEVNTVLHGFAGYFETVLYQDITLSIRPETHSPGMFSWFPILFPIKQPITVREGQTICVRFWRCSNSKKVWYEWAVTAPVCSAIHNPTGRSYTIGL", "sequence (Q9BQA1 whole entry partner)": "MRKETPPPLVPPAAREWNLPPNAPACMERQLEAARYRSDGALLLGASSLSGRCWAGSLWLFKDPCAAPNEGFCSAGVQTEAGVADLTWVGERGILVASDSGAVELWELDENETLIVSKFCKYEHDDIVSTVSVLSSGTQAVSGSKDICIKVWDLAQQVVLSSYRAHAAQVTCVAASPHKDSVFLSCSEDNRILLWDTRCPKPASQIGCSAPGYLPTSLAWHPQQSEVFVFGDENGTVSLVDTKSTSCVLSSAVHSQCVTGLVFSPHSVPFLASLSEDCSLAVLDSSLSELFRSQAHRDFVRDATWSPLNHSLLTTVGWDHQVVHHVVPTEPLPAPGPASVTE", "assay": "Radioisotope-based methyltransferase assay (selectivity)"}, "[3]": {"tested_on": "Salmonella typhimurium TA100", "assay": "Ames test, TA100", "method": "The Salmonella mutagenicity assay was performed by pre-incubating the test compounds for 20 min with Salmonella typhimurium strains TA98 and TA100, with and without metabolic activation (S9 mixture).\nAfter this time 2 mL of top agar was added to the mixture and poured on to a plate containing minimum agar. The plates were incubated at 37 °C for 49 h and the His ± revertant colonies were counted manually and automatically by a colony counter (Colony analyzer CA-11D systems, System science Co.,Ltd.). The influence of metabolic activation was tested by adding 500 μL of 10% S9 mixture. All experiments were performed in duplicate. […] DMSO served as the negative control (100 μL/plate). The mutagenic index (MI, the average number of revertants per plate divided by the average number of revertants per plate from the negative control) was also calculated for each dose. A sample was considered positive when the MI was equal to or greater than 2 for at least one of the tested doses."}, "[4]": {"assay": "Pharmacokinetic (PK) assay", "type": "in vivo, mice", "method": "PK studies were performed using 8-week-old male Crl:CD1 ICR mice in accordance with the animal experimental protocol, and procedures were approved by the Animal Care and Ethics Committee of Sekisui Medical. […] […] RK-701 in samples were analyzed by liquid chromatography-tandem mass spectrometry (LC–MS/MS) after deproteinization with acetonitrile. […] PK parameters were calculated using the program Phenix WinNolin (Certara).\nThe LC-MS/MS system comprised of ACQUITY Ultra Performance LC (Waters) and 4000 QTRAP (Sciex). Acquity UPLC BEH C18 (2.1 × 50 mm, 1.7 μm, Waters) was used as analytical column. The mobile phase consisted of 0.1% formic acid in water (mobile phase A) and acetonitrile (mobile phase B) at a total flow rate of 0.5 mL/min with a column temperature of 40 °C. The chromatographic separation was achieved using gradient elution. The gradient program was: 20% B from 0.0–0.1 min, 20–95% B from 0.1–1.5 min, 95–95% B from 1.5–2.0 min, and 20% B from 2.01–3.0 min. The MS/MS instrument was operated in positive-ion mode with an ion spray voltage of 4200 V, entrance potential of 10 V and source temperature at 600 °C. The curtain gas was set at 12 psi, ion source gas 1 at 40 psi, ion source gas 2 at 50 psi. […] Data acquisition and quantitation were performed by using Analyst (ver.1.4.3, Sciex)."}, "DNMT1": {"biological_target": "DNMT1 (Homo sapiens, UniProt P26358)", "sequence (P26358 whole entry)": "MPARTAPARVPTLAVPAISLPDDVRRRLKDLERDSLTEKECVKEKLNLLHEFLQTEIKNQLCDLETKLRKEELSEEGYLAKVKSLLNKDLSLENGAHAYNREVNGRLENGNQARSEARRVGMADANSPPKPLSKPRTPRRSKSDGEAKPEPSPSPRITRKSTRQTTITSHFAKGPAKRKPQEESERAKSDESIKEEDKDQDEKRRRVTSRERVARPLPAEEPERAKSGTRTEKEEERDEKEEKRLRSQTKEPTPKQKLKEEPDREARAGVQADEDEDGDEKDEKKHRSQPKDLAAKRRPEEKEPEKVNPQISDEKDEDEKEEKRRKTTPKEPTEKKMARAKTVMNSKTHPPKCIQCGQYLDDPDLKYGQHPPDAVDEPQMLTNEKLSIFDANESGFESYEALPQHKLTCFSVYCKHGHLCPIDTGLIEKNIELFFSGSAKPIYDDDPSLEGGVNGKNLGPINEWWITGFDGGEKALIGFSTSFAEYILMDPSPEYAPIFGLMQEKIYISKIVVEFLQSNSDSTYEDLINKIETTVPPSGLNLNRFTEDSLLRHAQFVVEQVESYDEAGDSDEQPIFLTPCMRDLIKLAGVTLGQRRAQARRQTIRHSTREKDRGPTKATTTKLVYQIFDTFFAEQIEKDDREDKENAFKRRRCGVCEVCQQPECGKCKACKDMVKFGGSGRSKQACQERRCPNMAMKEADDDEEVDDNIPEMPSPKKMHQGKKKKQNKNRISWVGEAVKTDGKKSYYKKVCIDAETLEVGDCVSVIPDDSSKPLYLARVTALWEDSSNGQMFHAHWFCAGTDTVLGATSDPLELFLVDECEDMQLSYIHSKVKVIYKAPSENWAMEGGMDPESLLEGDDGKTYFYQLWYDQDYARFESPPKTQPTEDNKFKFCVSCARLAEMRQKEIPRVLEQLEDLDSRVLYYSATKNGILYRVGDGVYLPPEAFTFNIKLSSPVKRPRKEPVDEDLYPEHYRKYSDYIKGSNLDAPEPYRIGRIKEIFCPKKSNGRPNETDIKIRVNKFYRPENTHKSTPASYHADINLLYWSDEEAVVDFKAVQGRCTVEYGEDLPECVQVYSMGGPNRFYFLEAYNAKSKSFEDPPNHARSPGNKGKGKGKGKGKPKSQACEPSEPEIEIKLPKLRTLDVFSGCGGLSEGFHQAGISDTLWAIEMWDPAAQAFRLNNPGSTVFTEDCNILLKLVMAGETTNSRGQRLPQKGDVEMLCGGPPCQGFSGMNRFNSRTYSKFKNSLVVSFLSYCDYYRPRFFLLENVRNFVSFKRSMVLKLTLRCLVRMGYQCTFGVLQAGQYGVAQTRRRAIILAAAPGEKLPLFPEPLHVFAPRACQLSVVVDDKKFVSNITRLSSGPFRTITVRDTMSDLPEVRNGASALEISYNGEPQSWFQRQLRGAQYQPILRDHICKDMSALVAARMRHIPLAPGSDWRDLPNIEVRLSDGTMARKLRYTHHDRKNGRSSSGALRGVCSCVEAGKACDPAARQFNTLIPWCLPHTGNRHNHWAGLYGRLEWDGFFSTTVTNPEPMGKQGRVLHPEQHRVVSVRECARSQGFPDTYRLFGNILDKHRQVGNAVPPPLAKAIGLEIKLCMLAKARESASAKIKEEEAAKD", "assay": "Radioisotope-based methyltransferase assay (selectivity)", "conditions": "IC50, DNMT1, 1 μM SAM"}, "MLL2 [5]": {"biological_target": "MLL2 (Homo sapiens, UniProt O14686)", "sequence (O14686 5319-5537)": "as the sequence (O14686 5319-5537) above", "sequence (Q9C005 whole entry, further chain)": "as the sequence (Q9C005 whole entry, further chain) above", "sequence (Q15291 whole entry, further chain)": "as the sequence (Q15291 whole entry, further chain) above", "sequence (Q9UBL3 whole entry, further chain)": "as the sequence (Q9UBL3 whole entry, further chain) above", "assay": "Radioisotope-based methyltransferase assay (selectivity)", "conditions": "MLL2, 1 μM SAM"}, "[6]": {"conditions": "male, Crl:CD1 ICR, mouse, ip, mice, plasma, single intraperitoneal 25 mg/kg"}},
  "note": "Where “and” joins values, the source holds several entries; their conditions need not be identical. Equal values may be shown once. Read-outs that look alike come from different tables or passages of the source.",
  "data": [
    {"compound": "Cc1c(C(=O)NC(CCC2CC2)C(=O)Nc2ccc(C#N)cc2)[nH]c2c1C(=O)CC(C)(C)C2", "note": "(centres unmarked) [RK-701]", "values": [
      {"measurement": "IC50", "setting": "MLL2 [1]", "value": "> 100", "unit": "µM"},
      {"measurement": "IC50", "setting": "EZH2 (Y641F)", "value": "> 100", "unit": "µM"},
      {"measurement": "Metabolic stability, % remaining of RK-701", "setting": "[2]; Time 5, replicate values", "value": 117, "unit": "%"},
      {"measurement": "Metabolic stability, % remaining of RK-701", "setting": "[2]; Time 10, replicate values", "value": 94.6, "unit": "%"},
      {"measurement": "Metabolic stability, % remaining of RK-701", "setting": "[2]; Time 20, replicate values", "value": 60, "unit": "%"},
      {"measurement": "Metabolic stability, % remaining of RK-701", "setting": "[2]; Time 30, replicate values", "value": 44.3, "unit": "%"},
      {"measurement": "Metabolic stability, % remaining of RK-701", "setting": "[2]; Time 45, replicate values", "value": 26, "unit": "%"},
      {"measurement": "Metabolic stability, % remaining of RK-701", "setting": "[2]; Time 60, replicate values", "value": 19.4, "unit": "%"},
      {"measurement": "remaining at 5 min, 1 µM", "setting": "[2]; monkey, liver microsomes, Metabolic stability, % remaining of RK-701, Monkey, Time 5, replicate values", "value": 106, "unit": "%"},
      {"measurement": "remaining at 10 min, 1 µM", "setting": "[2]; monkey, liver microsomes, Metabolic stability, % remaining of RK-701, Monkey, Time 10, replicate values", "value": 85.8, "unit": "%"},
      {"measurement": "remaining at 20 min, 1 µM", "setting": "[2]; monkey, liver microsomes, Metabolic stability, % remaining of RK-701, Monkey, Time 20, replicate values", "value": 57.4, "unit": "%"},
      {"measurement": "remaining at 30 min, 1 µM", "setting": "[2]; monkey, liver microsomes, Metabolic stability, % remaining of RK-701, Monkey, Time 30, replicate values", "value": 42.4, "unit": "%"},
      {"measurement": "remaining at 45 min, 1 µM", "setting": "[2]; monkey, liver microsomes, Metabolic stability, % remaining of RK-701, Monkey, Time 45, replicate values", "value": 24.2, "unit": "%"},
      {"measurement": "remaining at 60 min, 1 µM", "setting": "[2]; monkey, liver microsomes, Metabolic stability, % remaining of RK-701, Monkey, Time 60, replicate values", "value": 16.8, "unit": "%"},
      {"measurement": "microsomal CLint at 1 μM", "setting": "[2]; monkey, liver microsomes, read-out: Metabolic stability in liver microsomes CLint", "value": 67, "unit": "µL/min/mg"},
      {"measurement": "IC50", "setting": "PRMT5/MEP50", "value": "> 100", "unit": "µM"},
      {"measurement": "Number of reverants/plate", "setting": "[3]; TA100, + S9, base pair substitution mutation, 4.88 μg/plate", "value": "107 and 119"},
      {"measurement": "Number of reverants/plate", "setting": "[3]; TA100, + S9, base pair substitution mutation, 19.5 μg/plate", "value": "117 and 120"},
      {"measurement": "Number of reverants/plate", "setting": "[3]; TA100, + S9, base pair substitution mutation, 78.1 μg/plate", "value": "117 and 128"},
      {"measurement": "Number of reverants/plate", "setting": "[3]; TA100, + S9, base pair substitution mutation, 313 μg/plate", "value": "97 and 127"},
      {"measurement": "Number of reverants/plate", "setting": "[3]; TA100, + S9, base pair substitution mutation, 1250* μg/plate", "value": "98 and 121"},
      {"measurement": "Number of reverants/plate", "setting": "[3]; TA100, + S9, base pair substitution mutation, 2500* μg/plate", "value": "117 and 90"},
      {"measurement": "Number of reverants/plate", "setting": "[3]; TA100, + S9, base pair substitution mutation, 5000* μg/plate", "value": "111 and 110"},
      {"measurement": "Number of revertants/plate", "setting": "[3]; TA100, +S9, 4.88 μg/plate", "value": 113},
      {"measurement": "Number of revertants/plate", "setting": "[3]; TA100, +S9, 19.5 μg/plate", "value": 119},
      {"measurement": "Number of revertants/plate", "setting": "[3]; TA100, +S9, 78.1 μg/plate", "value": 123},
      {"measurement": "Number of revertants/plate", "setting": "[3]; TA100, +S9, 313 μg/plate", "value": 112},
      {"measurement": "Number of revertants/plate", "setting": "[3]; TA100, +S9, 1250 μg/plate, insoluble material", "value": 110},
      {"measurement": "Number of revertants/plate", "setting": "[3]; TA100, +S9, 2500 μg/plate, insoluble material", "value": 104},
      {"measurement": "Number of revertants/plate", "setting": "[3]; TA100, +S9, 5000 μg/plate, insoluble material", "value": 111},
      {"measurement": "Number of reverants/plate", "setting": "[3]; TA100, - S9, base pair substitution mutation, 4.88 μg/plate", "value": "110 and 135"},
      {"measurement": "Number of reverants/plate", "setting": "[3]; TA100, - S9, base pair substitution mutation, 19.5 μg/plate", "value": "102 and 108"},
      {"measurement": "Number of reverants/plate", "setting": "[3]; TA100, - S9, base pair substitution mutation, 78.1 μg/plate", "value": "90 and 106"},
      {"measurement": "Number of reverants/plate", "setting": "[3]; TA100, - S9, base pair substitution mutation, 313 μg/plate", "value": "125 and 110"},
      {"measurement": "Number of reverants/plate", "setting": "[3]; TA100, - S9, base pair substitution mutation, 1250* μg/plate", "value": "99 and 94"},
      {"measurement": "Number of reverants/plate", "setting": "[3]; TA100, - S9, base pair substitution mutation, 2500* μg/plate", "value": "98 and 108"},
      {"measurement": "Number of reverants/plate", "setting": "[3]; TA100, - S9, base pair substitution mutation, 5000* μg/plate", "value": "93 and 98"},
      {"measurement": "Number of revertants/plate", "setting": "[3]; TA100, -S9, 4.88 μg/plate", "value": 123},
      {"measurement": "Number of revertants/plate", "setting": "[3]; TA100, -S9, 19.5 μg/plate", "value": 105},
      {"measurement": "Number of revertants/plate", "setting": "[3]; TA100, -S9, 78.1 μg/plate", "value": 98},
      {"measurement": "Number of revertants/plate", "setting": "[3]; TA100, -S9, 313 μg/plate", "value": 118},
      {"measurement": "Number of revertants/plate", "setting": "[3]; TA100, -S9, 1250 μg/plate, insoluble material", "value": 97},
      {"measurement": "Number of revertants/plate", "setting": "[3]; TA100, -S9, 2500 μg/plate, insoluble material", "value": 103},
      {"measurement": "Number of revertants/plate", "setting": "[3]; TA100, -S9, 5000 μg/plate, insoluble material", "value": 96},
      {"measurement": "mutagenicity", "setting": "[3]; TA100, regardless of metabolic activation", "value": "no mutagenicity"},
      {"measurement": "concentration at 1 h", "setting": "[4]; Time 1 h, read-out: concentration (pharmacokinetic properties)", "value": "17.9827 µM and 11.6451 µM"},
      {"measurement": "concentration at 1 h", "setting": "[4]; Time 2 h, read-out: concentration (pharmacokinetic properties)", "value": "17.6692 µM and 34.4874 µM"},
      {"measurement": "concentration at 1 h", "setting": "[4]; Time 4 h, read-out: concentration (pharmacokinetic properties)", "value": "51.2832 µM and 42.7733 µM"},
      {"measurement": "concentration at 1 h", "setting": "[4]; Time 8 h, read-out: concentration (pharmacokinetic properties)", "value": "20.155 µM and 23.2902 µM"},
      {"measurement": "AUC(0-inf)", "setting": "[4]; [6]", "value": "418 ± 7", "unit": "µM·h"},
      {"measurement": "Cmax", "setting": "[4]; [6]", "value": 42.4, "unit": "µM"},
      {"measurement": "Tmax", "setting": "[4]; [6]", "value": 4, "unit": "h"},
      {"measurement": "half-life", "setting": "[4]; [6]", "value": "1.4 ± 0.1", "unit": "h"},
      {"measurement": "concentration at 1 h", "setting": "[4]; male, Crl:CD1 ICR, mouse, plasma, intraperitoneal, 25 mg/kg, Time 1 h, read-out: concentration (pharmacokinetic properties)", "value": 9.2, "unit": "µM"},
      {"measurement": "concentration at 2 h", "setting": "[4]; male, Crl:CD1 ICR, mouse, plasma, intraperitoneal, 25 mg/kg, Time 2 h, read-out: concentration (pharmacokinetic properties)", "value": 25.8, "unit": "µM"},
      {"measurement": "concentration at 4 h", "setting": "[4]; male, Crl:CD1 ICR, mouse, plasma, intraperitoneal, 25 mg/kg, Time 4 h, read-out: concentration (pharmacokinetic properties)", "value": 33.1, "unit": "µM"},
      {"measurement": "concentration at 8 h", "setting": "[4]; male, Crl:CD1 ICR, mouse, plasma, intraperitoneal, 25 mg/kg, Time 8 h, read-out: concentration (pharmacokinetic properties)", "value": 28.2, "unit": "µM"},
      {"measurement": "IC50", "setting": "DNMT1", "value": "> 100", "unit": "µM"}
    ]},
    {"compound": "Nc1ncnc2c1ncn2[C@@H]1O[C@H](CSCC[C@H](N)C(=O)O)[C@@H](O)[C@H]1O", "note": "[SAH, S-(5'-Adenosyl)-L-homocysteine, reference compound]", "values": [
      {"measurement": "IC50", "setting": "MLL2 [5]", "value": 11.6, "unit": "µM"}
    ]}
  ]
}
